Data as given in the C3SDB collision cross section collection.

Conditions: instrument: DT, stepped-field

Row | SMILES | collision cross section (N2) ([M+H]+) [Å²] | collision cross section (N2) ([M+Na]+) [Å²]
1 | C=C1C2CCC(C2)C1(C)C (configuration not stated) [Camphene] | 130.63 | 133.01
2 | CC(=O)Nc1ccc(S(=O)(=O)Nc2cc(C)on2)cc1 [N-Acetyl Sulfamethoxazole] | 171.45 | 178.52
3 | Nc1ccn([C@@H]2O[C@H](CO)[C@@H](OP(=O)(O)O)[C@H]2O)c(=O)n1 [Cytidine 3'-monophosphate] | 170.98 | 174.9
4 | OC[C@H]1O[C@@H](O[C@H]2[C@H](O)[C@@H](O)[C@H](O[C@H]3[C@H](O)[C@@H](O)[C@H](O[C@H]4[C@H](O)[C@@H](O)[C@H](O[C@H]5[C@H](O)[C@@H](O)C(O)O[C@@H]5CO)O[C@@H]4CO)O[C@@H]3CO)O[C@@H]2CO)[C@H](O)[C@@H](O)[C@@H]1O (some centres not stated) [Cellopentaose] | – | 251.04
5 | Nc1ccnc(=O)[nH]1 [Cytosine] | 121.58 | –
6 | C[N+](C)(C)CCOP(=O)([O-])OC[C@H](O)CO [sn-Glycero-3-phosphocholine] | 157.17 | 161.8
7 | CCCCC/C=C\C\C=C/C=C/C=C/[C@@H](SC[C@H](N)C(=O)O)[C@@H](O)CCCC(=O)O [Leukotriene E4] | 213.2 | 227.9
8 | OC1OC[C@@H](O[C@@H]2OC[C@@H](O)[C@H](O)[C@H]2O)[C@H](O)[C@H]1O (some centres not stated) [Xylobiose] | – | 167.4
9 | CCC(CC)Nc1c([N+](=O)[O-])cc(C)c(C)c1[N+](=O)[O-] [Pendimethalin] | 162.6 | 187.77
10 | CCCCCCCCCCCCCCCC(=O)O[C@H](COC(=O)CCCCCCCCCCC)COP(=O)(O)OC[C@H](N)C(=O)O [PS(14:0/14:0)] | – | 247.83
11 | c1cn[nH]c1 [Pyrazole] | 125.47 | –
12 | OC[C@H]1O[C@@H](O[C@H]2[C@H](O)[C@H](O)[C@H](O[C@H]3[C@H](O)[C@H](O)[C@H](O[C@H]4[C@H](O)[C@H](O)[C@H](O[C@H]5[C@H](O)[C@H](O)[C@H](O[C@H]6[C@H](O)[C@H](O)C(O)O[C@@H]6CO)O[C@@H]5CO)O[C@@H]4CO)O[C@@H]3CO)O[C@@H]2CO)[C@@H](O)[C@@H](O)[C@@H]1O (some centres not stated) [Mannohexaose] | – | 281.7
13 | O=C(O)[C@H](O)[C@@H](O)CO [L-Threonic Acid] | – | 136.93
14 | O=C(O)/C=C/c1ccccc1 [Cinnamic Acid] | 145.31 | –
15 | CC(C)C1(C)N=C(c2ncccc2C(=O)O)NC1=O (configuration not stated) [Imazapyr] | 157.81 | 176.07
16 | O=C(O)c1ccc(=O)[nH]c1 [6-Hydroxynicotinate] | 136.43 | –
17 | CCOCN(C(=O)CCl)c1c(C)cccc1CC [Acetochlor] | 160.09 | 174.6
18 | CCCCCCCCCCCCC(=O)OCC(O)COP(=O)([O-])OCC[N+](C)(C)C (configuration not stated) [LPC 13:0] | 220.71 | 225.41
19 | C[C@@H]1O[C@@H](O[C@H]2C(=O)c3c(O)cc(O)cc3O[C@@H]2c2ccc(O)c(O)c2)[C@H](O)[C@H](O)[C@H]1O [Astilbin] | 205.87 | 212.64
20 | OC1C(O)C(O)C(O)C(O)C1O (configuration not stated) [Inositol] | – | 151.95
21 | O=C(O)C1(O)C[C@@H](O)C(O)[C@H](O)C1 (some centres not stated) [Quinic Acid] | 146.35 | 153.72
22 | CC/C=C\C[C@H](O)/C=C/[C@H]1OC(O)C[C@H](O)[C@@H]1C/C=C\CCCC(=O)O (some centres not stated) [Thromboxane B3] | – | 197.33
23 | OC[C@H]1O[C@H](O[C@H]2[C@H](O)[C@@H](O)[C@@H](O[C@H]3[C@H](O)[C@@H](O)[C@@H](O[C@H]4[C@H](O)[C@@H](O)[C@@H](O[C@H]5[C@H](O)[C@@H](O)[C@@H](O[C@H]6[C@H](O)[C@@H](O)C(O)O[C@@H]6CO)O[C@@H]5CO)O[C@@H]4CO)O[C@@H]3CO)O[C@@H]2CO)[C@H](O)[C@@H](O)[C@@H]1O (some centres not stated) [Maltohexaose] | – | 279.7
24 | O=C(CO)[C@@H](O)[C@@H](O)CO [L-Ribulose] | – | 132.81
25 | O=c1c(-c2ccc(O)cc2)coc2cc(O)cc(O)c12 [Genistein] | 163.3 | 177.67
26 | NC(=O)NC1NC(=O)NC1=O (configuration not stated) [Allantoin] | – | 145.61
27 | CC/C=C\C[C@H](O)[C@H](O)/C=C/C=C/C=C\C=C\[C@@H](O)C/C=C\CCC(=O)O [Resolvin D2] | – | 200.6
28 | CN[C@@H](CCC(=O)O)C(=O)O [N-Methyl-L-glutamate] | 133.71 | –
29 | N[C@@H]1C(O)O[C@H](CO)[C@@H](O)[C@@H]1O (stereo partly drawn) [D-Mannosamine] | – | 146.73
30 | N[C@@H](Cc1ccccc1Cl)C(=O)O [2-Chloro-L-Phenylalanine] | 148.86 | –
